In the assay the test system is BDF1 mice, P388 leukemia ip, median survival T/C. As to the kind of experiment: NCI In Vivo Anticancer Drug Screen. Data for tumor model P388 Leukemia (intraperitoneal) in B6D2F1 (BDF1) mice. To be noted: endpoint: median survival time, higher = longer survival. An outline of the steps:
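Transplantable tumour in mice; compound vs vehicle dosing; survival scored; ratio of treated to control reported.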

Where [1] appears, read: dose: 25.0 mg/kg/injection, schedule: Q01DX009 (ip), vehicle: saline with Tween-80.
Setting [2] is: dose: 6.25 mg/kg/injection, schedule: Q01DX009 (ip), vehicle: saline.
[3] abbreviates: dose: 6.25 mg/kg/injection, schedule: Q04DX003 (ip), vehicle: saline.
[4] abbreviates: dose: 12.5 mg/kg/injection, schedule: Q01DX009 (ip), vehicle: saline.
Where [5] appears, read: dose: 12.5 mg/kg/injection, schedule: Q04DX003 (ip), vehicle: saline.
The mark [6] stands for this setting: dose: 25.0 mg/kg/injection, schedule: Q04DX003 (ip), vehicle: saline.
The mark [7] stands for this setting: dose: 50.0 mg/kg/injection, schedule: Q04DX003 (ip), vehicle: saline with Tween-80.
[8] abbreviates: dose: 100.0 mg/kg/injection, schedule: Q04DX003 (ip), vehicle: saline with Tween-80.
The mark [9] stands for this setting: dose: 50.0 mg/kg/injection, schedule: Q01DX009 (ip), vehicle: saline.
[10] abbreviates: dose: 100.0 mg/kg/injection, schedule: Q01DX009 (ip), vehicle: saline.
[11] abbreviates: dose: 50.0 mg/kg/injection, schedule: Q01DX009 (ip), vehicle: saline with Tween-80.
The mark [12] stands for this setting: dose: 100.0 mg/kg/injection, schedule: Q01DX009 (ip), vehicle: saline with Tween-80.
Setting [13] is: dose: 200.0 mg/kg/injection, schedule: Q04DX003 (ip), vehicle: saline with Tween-80.

Each structure is given as a SMILES string. Where “and” joins values, the source holds several entries; their conditions need not be identical. Equal values may be shown once. Inconclusive results and toxic doses are left out.

As for `C1CC[N-]CC1.C1CC[N-]CC1.C1CC[N-]CC1.C1CC[N-]CC1.[Cl][Co][Cl]`, the T/C by setting is: under setting [1], 118 % of control; (dose: 33.0 mg/kg/injection, schedule: Q01DX009 (ip), vehicle: saline with Tween-80) 100 % of control; (dose: 75.0 mg/kg/injection, schedule: Q01DX009 (ip), vehicle: saline with Tween-80) 120 % of control.

For the compound `Nc1cc(N)cc([N+](=O)[O-])c1`, the T/C is, setting by setting: under setting [2], 90 % of control; under setting [3], 100 % of control; under setting [4], 86 % of control; under setting [5], 104 % of control; under setting [6], 100 % of control.

Turning to `COc1cc(OC)c(NC(=O)c2ccc([N+](=O)[O-])s2)cc1Cl`, the T/C runs as follows: (dose: 25.0 mg/kg/injection, schedule: Q01DX005 (ip), vehicle: saline) 102 % of control; (dose: 50.0 mg/kg/injection, schedule: Q01DX005 (ip), vehicle: saline) 89 % of control.

With `CCCCCCCCCCCCCCCCCOC(=O)CCCCCCCCCCCCCCCCC`, the T/C is 105 % of control (dose: 25.0 mg/kg/injection, schedule: Q04DX003 (ip), vehicle: saline with Tween-80); 105 % of control under setting [7]; 100 % of control under setting [8].

On to `Nc1cc(I)c2cccnc2c1O`, for which the T/C was 93 % of control and 115 % of control under setting [2]; 90 % of control and 99 % of control under setting [4]; 123 % of control (dose: 25.0 mg/kg/injection, schedule: Q01DX009 (ip), vehicle: saline); 117 % of control under setting [9]; 124 % of control under setting [10].

Regarding `CCOP1(=O)N(C)CCN1C`, the T/C under setting [9] is 95 % of control.

As for `Cc1ccc(S(=O)(=O)Oc2ccc([N+](=O)[O-])cc2[N+](=O)[O-])cc1`, the T/C is, setting by setting: under setting [6], 104 % of control; (dose: 50.0 mg/kg/injection, schedule: Q04DX003 (ip), vehicle: saline) 109 % of control; (dose: 100.0 mg/kg/injection, schedule: Q04DX003 (ip), vehicle: saline) 109 % of control.

In the case of `CCSc1c(S)cnn(C)c1=O`, the T/C reads like this: (dose: 50.0 mg/kg/injection, schedule: Q01DX005 (ip), vehicle: saline with Tween-80) 90 % of control; (dose: 100.0 mg/kg/injection, schedule: Q01DX005 (ip), vehicle: saline with Tween-80) 90 % of control; (dose: 200.0 mg/kg/injection, schedule: Q01DX005 (ip), vehicle: saline with Tween-80) 97 % of control.

As to `CCc1c(CC(=O)O)c2cc(C)ccc2n1Cc1ccc(Cl)cc1`, the T/C was 104 % of control under setting [1]; 109 % of control and 118 % of control under setting [11]; 104 % of control and 109 % of control under setting [12].

With `COC(=O)C(C)NC1=C(Cl)C(=O)C(NC(C)C(=O)OC)=C(Cl)C1=O` (stereo not given), the T/C (dose: 50.0 mg/kg/injection, schedule: Q01DX009 (ip), vehicle: saline + Tween-80 + alcohol) is 98 % of control; the T/C (dose: 100.0 mg/kg/injection, schedule: Q01DX009 (ip), vehicle: saline + Tween-80 + alcohol) was 97 % of control; the T/C (dose: 200.0 mg/kg/injection, schedule: Q01DX009 (ip), vehicle: saline + Tween-80 + alcohol) was 101 % of control.

`Clc1ccc(CN2CCCN(Cc3ccc(Cl)c(Cl)c3)S2)cc1Cl`: the T/C was 101 % of control under setting [11]; 97 % of control under setting [12]; 90 % of control (dose: 200.0 mg/kg/injection, schedule: Q01DX009 (ip), vehicle: saline with Tween-80).

As for `C[P+](c1ccc(Cl)cc1)(c1ccc(Cl)cc1)c1ccc(Cl)cc1`, the T/C was 100 % of control under setting [3], 104 % of control under setting [5] and 109 % of control under setting [6].

For `O=c1c(Cl)c2cc3c(cc2c2ccccc12)nc1ccccc1n3-c1ccccc1`, the T/C is, setting by setting: (dose: 12.5 mg/kg/injection, schedule: Q01DX001 (ip), vehicle: saline with Tween-80) 88 % of control; (dose: 25.0 mg/kg/injection, schedule: Q01DX001 (ip), vehicle: saline with Tween-80) 88 % of control.

In the case of `CN1CCN(c2ccc([N+](=O)[O-])c3no[n+]([O-])c23)CC1`, the T/C is, setting by setting: (dose: 10.0 mg/kg/injection, schedule: Q01DX009 (ip), vehicle: saline with Tween-80) 166 % of control; (dose: 20.0 mg/kg/injection, schedule: Q01DX009 (ip), vehicle: saline with Tween-80) 169 % of control.

For `COC(=O)c1nc(-c2ccc3c(n2)C(=O)C(N)=C(OC)C3=O)c(N)c(-c2ccc(OC)c(OC)c2O)c1C`, the T/C (dose: 4.0 mg/kg/injection, schedule: Q01DX009 (ip), vehicle: saline with Tween-80) was 250 % of control; the T/C (dose: 6.0 mg/kg/injection, schedule: Q01DX009 (ip), vehicle: saline with Tween-80) is 183 % of control; the T/C (dose: 9.0 mg/kg/injection, schedule: Q01DX009 (ip), vehicle: saline with Tween-80) was 162 % of control.

Take `CCCCCC(CN(C)C)C(O)/C=C\c1ccccc1` (stereo not given): the T/C was 100 % of control (dose: 3.13 mg/kg/injection, schedule: Q01DX009 (ip), vehicle: saline); 117 % of control under setting [2]; 119 % of control under setting [4]; 104 % of control under setting [9]; 99 % of control under setting [10].

As to `CCOC(=O)NC1CCC2c3ccccc3C([N+](=O)[O-])(C1)c1ccccc12` (stereo not given), the T/C by setting is: under setting [7], 100 % of control; under setting [8], 104 % of control; under setting [13], 100 % of control.

`Cc1ccc(C(SCC(N)C(=O)O)(c2ccccc2)c2ccc(C)cc2)cc1` (stereo not given): the T/C was 268 % of control under setting [11]; 172 % of control under setting [12]; 190 % of control (dose: 132.0 mg/kg/injection, schedule: Q04DX003 (ip), vehicle: saline with Tween-80); 231 % of control under setting [13].

For `Nc1c(Cl)c(Cl)nc(C(=O)O)c1Cl`, the T/C by setting is: (dose: 2.5 mg/kg/injection, schedule: Q01DX009 (ip), vehicle: saline) 102 % of control; (dose: 5.0 mg/kg/injection, schedule: Q01DX009 (ip), vehicle: saline) 106 % of control; (dose: 6.25 mg/kg/injection, schedule: Q01DX009 (ip), vehicle: Klucel (hydroxypropylcellulose) (HPC)) 104 % of control; (dose: 10.0 mg/kg/injection, schedule: Q01DX009 (ip), vehicle: saline) 113 % of control; (dose: 12.5 mg/kg/injection, schedule: Q01DX009 (ip), vehicle: Klucel (hydroxypropylcellulose) (HPC)) 95 % of control; (dose: 20.0 mg/kg/injection, schedule: Q01DX009 (ip), vehicle: saline) 115 % of control. In addition, the T/C (dose: 25.0 mg/kg/injection, schedule: Q01DX009 (ip), vehicle: Klucel (hydroxypropylcellulose) (HPC)) was 104 % of control; the T/C (dose: 40.0 mg/kg/injection, schedule: Q01DX009 (ip), vehicle: saline) is 106 % of control; the T/C (dose: 50.0 mg/kg/injection, schedule: Q01DX009 (ip), vehicle: Klucel (hydroxypropylcellulose) (HPC)) was 106 % of control; the T/C (dose: 100.0 mg/kg/injection, schedule: Q01DX009 (ip), vehicle: Klucel (hydroxypropylcellulose) (HPC)) is 98 % of control.

As to `CCC1=C2C(=O)c3ccccc3C2=C(C)S(=O)(=O)O1`, the T/C (dose: 6.25 mg/kg/injection, schedule: Q01DX009 (ip), vehicle: saline with Tween-80) was 113 % of control and 118 % of control; the T/C (dose: 12.5 mg/kg/injection, schedule: Q01DX009 (ip), vehicle: saline with Tween-80) is 118 % of control; the T/C under setting [1] was 122 % of control.

For the compound `N#Cc1ccc(Oc2ccc(C#N)cc2)cc1`, the T/C was 92 % of control under setting [8]; 88 % of control under setting [13]; 88 % of control (dose: 400.0 mg/kg/injection, schedule: Q04DX003 (ip), vehicle: saline with Tween-80).

In the case of `O=C1NC(=O)C(F)(F)C(O)N1` (stereo not given), the T/C (dose: 12.0 mg/kg/injection, schedule: Q01DX009 (ip), vehicle: saline) was 115 % of control; the T/C (dose: 65.0 mg/kg/injection, schedule: Q01DX009 (ip), vehicle: saline) was 154 % of control; the T/C under setting [10] was 154 % of control; the T/C (dose: 150.0 mg/kg/injection, schedule: Q01DX009 (ip), vehicle: saline) is 166 % of control; the T/C (dose: 220.0 mg/kg/injection, schedule: Q01DX009 (ip), vehicle: saline) is 179 % of control; the T/C (dose: 320.0 mg/kg/injection, schedule: Q01DX009 (ip), vehicle: saline) is 195 % of control.

`COc1ccc2c(c1)N=C1CCCC3CCCCC123` (stereo not given): the T/C runs as follows: under setting [8], 99 % of control; under setting [13], 114 % of control.

Source of the values: PubChem BioAssay AID328 (DTP/NCI, 2004).
